Laboratory results: ChEMBL document CHEMBL4507311, “Data for DCP probe A-1155463” (2021)

Experiments:
[1] = biological target: Bone morphogenetic protein receptor type-1A (Homo sapiens) (UniProt P36894); conditions: Compound concentration 1000.0 nM
[2] = biological target: Serine/threonine-protein kinase Chk1 (Homo sapiens) (UniProt O14757); conditions: Compound concentration 1000.0 nM
[3] = biological target: Serine/threonine-protein kinase DCLK3 (Homo sapiens) (UniProt Q9C098); conditions: Compound concentration 1000.0 nM
[4] = biological target: Dual specificity tyrosine-phosphorylation-regulated kinase 1B (Homo sapiens) (UniProt Q9Y463); conditions: Compound concentration 1000.0 nM
[5] = biological target: Dual specificity tyrosine-phosphorylation-regulated kinase 2 (Homo sapiens) (UniProt Q92630); conditions: Compound concentration 1000.0 nM
[6] = tested on: Epidermal growth factor receptor (Homo sapiens), P00533 [UNDEFINED MUTATION]; conditions: Compound concentration 1000.0 nM
[7] = biological target: Fibroblast growth factor receptor 4 (Homo sapiens) (UniProt P22455); conditions: Compound concentration 1000.0 nM
[8] = biological target: Interleukin-1 receptor-associated kinase 3 (Homo sapiens) (UniProt Q9Y616); conditions: Compound concentration 1000.0 nM
[9] = biological target: Tyrosine-protein kinase JAK2 (Homo sapiens) (UniProt O60674); conditions: Compound concentration 1000.0 nM
[10] = biological target: Serine/threonine-protein kinase LATS2 (Homo sapiens) (UniProt Q9NRM7); conditions: Compound concentration 1000.0 nM
[11] = tested on: Hepatocyte growth factor receptor (Homo sapiens), P08581 [Y1235D]; conditions: Compound concentration 1000.0 nM
[12] = biological target: Serine/threonine-protein kinase MRCK beta (Homo sapiens) (UniProt Q9Y5S2); conditions: Compound concentration 1000.0 nM
[13] = biological target: Myosin-IIIa (Homo sapiens) (UniProt Q8NEV4); conditions: Compound concentration 1000.0 nM
[14] = biological target: Serine/threonine-protein kinase NIM1 (Homo sapiens) (UniProt Q8IY84); conditions: Compound concentration 1000.0 nM
[15] = biological target: Serine/threonine-protein kinase PAK 5 (Homo sapiens) (UniProt Q9P286); conditions: Compound concentration 1000.0 nM
[16] = biological target: Platelet-derived growth factor receptor alpha (Homo sapiens) (UniProt P16234); conditions: Compound concentration 1000.0 nM
[17] = tested on: Phosphatidylinositol 4,5-bisphosphate 3-kinase catalytic subunit alpha isoform (Homo sapiens), P42336 [M1043I]; conditions: Compound concentration 1000.0 nM
[18] = biological target: Phosphatidylinositol 4-phosphate 5-kinase type-1 alpha (Homo sapiens) (UniProt Q99755); conditions: Compound concentration 1000.0 nM
[19] = biological target: Serine/threonine-protein kinase N2 (Homo sapiens) (UniProt Q16513); conditions: Compound concentration 1000.0 nM
[20] = biological target: cAMP-dependent protein kinase catalytic subunit PRKX (Homo sapiens) (UniProt P51817); conditions: Compound concentration 1000.0 nM
[21] = biological target: Serine/threonine-protein kinase PRP4 homolog (Homo sapiens) (UniProt Q13523); conditions: Compound concentration 1000.0 nM
[22] = biological target: Receptor-interacting serine/threonine-protein kinase 1 (Homo sapiens) (UniProt Q13546); conditions: Compound concentration 1000.0 nM
[23] = biological target: Ribosomal protein S6 kinase alpha-2 (Homo sapiens) (UniProt Q15349); conditions: Compound concentration 1000.0 nM
[24] = biological target: Ribosomal protein S6 kinase beta-1 (Homo sapiens) (UniProt P23443); conditions: Compound concentration 1000.0 nM
[25] = biological target: STE20-like serine/threonine-protein kinase (Homo sapiens) (UniProt Q9H2G2); conditions: Compound concentration 1000.0 nM
[26] = biological target: SNF-related serine/threonine-protein kinase (Homo sapiens) (UniProt Q9NRH2); conditions: Compound concentration 1000.0 nM
[27] = biological target: Serine/threonine-protein kinase 35 (Homo sapiens) (UniProt Q8TDR2); conditions: Compound concentration 1000.0 nM
[28] = biological target: Testis-specific serine/threonine-protein kinase 1 (Homo sapiens) (UniProt Q9BXA7); conditions: Compound concentration 1000.0 nM
[29] = biological target: Testis-specific serine/threonine-protein kinase 3 (Homo sapiens) (UniProt Q96PN8); conditions: Compound concentration 1000.0 nM
[30] = biological target: Non-receptor tyrosine-protein kinase TYK2 (Homo sapiens) (UniProt P29597); conditions: Compound concentration 1000.0 nM
[31] = biological target: Serine/threonine-protein kinase ULK1 (Homo sapiens) (UniProt O75385); conditions: Compound concentration 1000.0 nM
[32] = biological target: Phosphatidylinositol 3-kinase catalytic subunit type 3 (Homo sapiens) (UniProt Q8NEB9); conditions: Compound concentration 1000.0 nM
[33] = biological target: Serine/threonine-protein kinase WNK1 (Homo sapiens) (UniProt Q9H4A3); conditions: Compound concentration 1000.0 nM
[34] = biological target: Serine/threonine-protein kinase WNK2 (Homo sapiens) (UniProt Q9Y3S1); conditions: Compound concentration 1000.0 nM
[35] = biological target: 5-hydroxytryptamine receptor 1B (Homo sapiens) (UniProt P28222); conditions: Compound concentration 10.0 uM
[36] = biological target: Mu-type opioid receptor (Homo sapiens) (UniProt P35372); conditions: Compound concentration 10.0 uM
Histamine H3 receptor = Histamine H3 receptor (Homo sapiens, UniProt Q9Y5N1); conditions: Compound concentration 10.0 uM
[37] = biological target: T1, Alpha-2A adrenergic receptor (Homo sapiens) (UniProt P08913); conditions: Compound concentration 10.0 uM
T1 sequence (whole entry): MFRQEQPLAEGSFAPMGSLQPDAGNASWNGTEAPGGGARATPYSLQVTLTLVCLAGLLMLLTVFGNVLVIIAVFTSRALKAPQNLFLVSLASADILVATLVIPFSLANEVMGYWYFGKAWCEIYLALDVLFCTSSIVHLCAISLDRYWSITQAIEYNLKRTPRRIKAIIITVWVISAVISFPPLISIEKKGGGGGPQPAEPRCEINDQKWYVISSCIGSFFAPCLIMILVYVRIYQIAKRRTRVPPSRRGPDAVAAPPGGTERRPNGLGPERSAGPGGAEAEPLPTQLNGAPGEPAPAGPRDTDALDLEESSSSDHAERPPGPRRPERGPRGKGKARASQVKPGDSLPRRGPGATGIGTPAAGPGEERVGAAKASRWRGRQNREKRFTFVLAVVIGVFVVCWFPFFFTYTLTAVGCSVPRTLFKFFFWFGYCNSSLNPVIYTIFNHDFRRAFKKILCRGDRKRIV

Chain of STE20-like serine/threonine-protein kinase (Homo sapiens) (Q9H2G2 whole entry, looked up): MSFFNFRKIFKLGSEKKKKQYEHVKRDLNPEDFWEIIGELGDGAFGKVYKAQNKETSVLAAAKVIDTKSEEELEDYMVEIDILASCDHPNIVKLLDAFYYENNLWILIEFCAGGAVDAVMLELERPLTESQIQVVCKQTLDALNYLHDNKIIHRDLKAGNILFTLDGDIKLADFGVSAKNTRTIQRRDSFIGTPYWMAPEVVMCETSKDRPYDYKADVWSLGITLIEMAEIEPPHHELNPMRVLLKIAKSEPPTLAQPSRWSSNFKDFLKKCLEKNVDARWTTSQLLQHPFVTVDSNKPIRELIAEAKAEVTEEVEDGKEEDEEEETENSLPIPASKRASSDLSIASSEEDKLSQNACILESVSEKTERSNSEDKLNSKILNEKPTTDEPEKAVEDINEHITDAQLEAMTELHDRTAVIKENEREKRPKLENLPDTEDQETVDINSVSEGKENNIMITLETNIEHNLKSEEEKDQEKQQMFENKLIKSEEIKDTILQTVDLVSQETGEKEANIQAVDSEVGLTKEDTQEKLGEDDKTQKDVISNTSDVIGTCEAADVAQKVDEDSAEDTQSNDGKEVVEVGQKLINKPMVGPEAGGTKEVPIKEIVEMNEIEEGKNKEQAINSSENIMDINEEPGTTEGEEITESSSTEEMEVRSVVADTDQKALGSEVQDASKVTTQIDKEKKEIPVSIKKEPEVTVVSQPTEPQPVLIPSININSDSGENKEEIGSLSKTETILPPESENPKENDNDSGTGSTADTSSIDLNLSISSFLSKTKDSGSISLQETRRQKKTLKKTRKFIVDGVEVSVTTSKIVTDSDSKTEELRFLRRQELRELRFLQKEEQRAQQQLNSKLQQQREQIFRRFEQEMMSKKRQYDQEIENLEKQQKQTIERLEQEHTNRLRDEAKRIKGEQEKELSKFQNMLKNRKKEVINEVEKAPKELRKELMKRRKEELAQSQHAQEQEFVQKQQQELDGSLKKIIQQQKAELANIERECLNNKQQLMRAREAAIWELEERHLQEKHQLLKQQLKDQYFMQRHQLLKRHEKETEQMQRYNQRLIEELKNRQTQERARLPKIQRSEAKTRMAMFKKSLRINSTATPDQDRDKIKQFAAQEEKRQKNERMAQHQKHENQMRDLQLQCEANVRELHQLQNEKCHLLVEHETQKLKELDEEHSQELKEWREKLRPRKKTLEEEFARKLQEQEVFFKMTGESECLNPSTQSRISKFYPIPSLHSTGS
Chain of Histamine H3 receptor (Q9Y5N1 whole entry): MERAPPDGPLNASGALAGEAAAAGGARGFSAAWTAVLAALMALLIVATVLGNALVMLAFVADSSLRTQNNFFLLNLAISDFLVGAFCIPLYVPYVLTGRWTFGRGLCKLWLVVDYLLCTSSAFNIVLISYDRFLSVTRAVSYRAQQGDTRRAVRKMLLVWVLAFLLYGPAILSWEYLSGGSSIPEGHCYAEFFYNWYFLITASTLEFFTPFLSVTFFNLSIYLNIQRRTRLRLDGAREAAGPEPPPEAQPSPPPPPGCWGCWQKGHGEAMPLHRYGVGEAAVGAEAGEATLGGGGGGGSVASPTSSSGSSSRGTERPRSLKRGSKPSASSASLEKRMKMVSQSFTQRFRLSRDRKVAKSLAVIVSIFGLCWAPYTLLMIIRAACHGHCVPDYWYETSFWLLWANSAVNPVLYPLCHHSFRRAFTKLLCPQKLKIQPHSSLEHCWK
Chain of Serine/threonine-protein kinase NIM1 (Homo sapiens) (Q8IY84 whole entry): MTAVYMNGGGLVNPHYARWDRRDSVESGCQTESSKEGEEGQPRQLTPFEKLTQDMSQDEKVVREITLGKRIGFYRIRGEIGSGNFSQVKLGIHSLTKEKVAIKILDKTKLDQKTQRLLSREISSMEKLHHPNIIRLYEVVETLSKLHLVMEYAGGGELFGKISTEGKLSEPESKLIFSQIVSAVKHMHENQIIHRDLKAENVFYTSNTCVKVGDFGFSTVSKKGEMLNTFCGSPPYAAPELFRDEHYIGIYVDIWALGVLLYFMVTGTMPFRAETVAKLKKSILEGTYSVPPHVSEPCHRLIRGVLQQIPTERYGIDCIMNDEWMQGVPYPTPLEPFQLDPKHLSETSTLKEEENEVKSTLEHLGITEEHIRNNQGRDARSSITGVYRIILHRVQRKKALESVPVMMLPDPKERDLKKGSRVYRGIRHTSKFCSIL
Chain of Serine/threonine-protein kinase LATS2 (Homo sapiens) (Q9NRM7 whole entry): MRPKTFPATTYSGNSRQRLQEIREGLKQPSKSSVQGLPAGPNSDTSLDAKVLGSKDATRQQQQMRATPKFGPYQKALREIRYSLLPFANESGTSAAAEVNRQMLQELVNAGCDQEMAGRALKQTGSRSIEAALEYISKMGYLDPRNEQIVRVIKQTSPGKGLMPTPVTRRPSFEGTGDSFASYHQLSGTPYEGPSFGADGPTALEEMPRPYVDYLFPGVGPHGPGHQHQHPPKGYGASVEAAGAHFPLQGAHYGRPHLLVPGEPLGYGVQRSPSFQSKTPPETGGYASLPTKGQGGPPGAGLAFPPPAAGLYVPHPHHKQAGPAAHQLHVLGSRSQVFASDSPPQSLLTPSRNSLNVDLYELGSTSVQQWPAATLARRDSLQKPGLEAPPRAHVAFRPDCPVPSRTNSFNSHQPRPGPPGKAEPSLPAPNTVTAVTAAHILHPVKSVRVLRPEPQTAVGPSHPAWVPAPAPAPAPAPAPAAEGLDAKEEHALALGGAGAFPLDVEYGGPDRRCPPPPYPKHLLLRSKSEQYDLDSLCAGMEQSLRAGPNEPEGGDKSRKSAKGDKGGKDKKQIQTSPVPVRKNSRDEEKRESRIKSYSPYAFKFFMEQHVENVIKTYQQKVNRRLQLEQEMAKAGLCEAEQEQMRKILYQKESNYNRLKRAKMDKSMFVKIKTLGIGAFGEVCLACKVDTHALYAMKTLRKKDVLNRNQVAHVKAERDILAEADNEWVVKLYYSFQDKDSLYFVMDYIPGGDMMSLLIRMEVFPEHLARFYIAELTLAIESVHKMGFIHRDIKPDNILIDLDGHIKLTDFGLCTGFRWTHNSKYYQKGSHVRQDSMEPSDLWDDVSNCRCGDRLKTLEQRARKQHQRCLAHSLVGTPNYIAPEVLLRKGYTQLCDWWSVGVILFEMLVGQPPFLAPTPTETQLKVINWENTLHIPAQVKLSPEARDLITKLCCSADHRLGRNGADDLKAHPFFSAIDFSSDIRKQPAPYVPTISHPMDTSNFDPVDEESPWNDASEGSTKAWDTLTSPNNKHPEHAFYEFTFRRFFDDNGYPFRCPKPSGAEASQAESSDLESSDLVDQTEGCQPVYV
Chain of Platelet-derived growth factor receptor alpha (Homo sapiens) (P16234 whole entry, canonical isoform): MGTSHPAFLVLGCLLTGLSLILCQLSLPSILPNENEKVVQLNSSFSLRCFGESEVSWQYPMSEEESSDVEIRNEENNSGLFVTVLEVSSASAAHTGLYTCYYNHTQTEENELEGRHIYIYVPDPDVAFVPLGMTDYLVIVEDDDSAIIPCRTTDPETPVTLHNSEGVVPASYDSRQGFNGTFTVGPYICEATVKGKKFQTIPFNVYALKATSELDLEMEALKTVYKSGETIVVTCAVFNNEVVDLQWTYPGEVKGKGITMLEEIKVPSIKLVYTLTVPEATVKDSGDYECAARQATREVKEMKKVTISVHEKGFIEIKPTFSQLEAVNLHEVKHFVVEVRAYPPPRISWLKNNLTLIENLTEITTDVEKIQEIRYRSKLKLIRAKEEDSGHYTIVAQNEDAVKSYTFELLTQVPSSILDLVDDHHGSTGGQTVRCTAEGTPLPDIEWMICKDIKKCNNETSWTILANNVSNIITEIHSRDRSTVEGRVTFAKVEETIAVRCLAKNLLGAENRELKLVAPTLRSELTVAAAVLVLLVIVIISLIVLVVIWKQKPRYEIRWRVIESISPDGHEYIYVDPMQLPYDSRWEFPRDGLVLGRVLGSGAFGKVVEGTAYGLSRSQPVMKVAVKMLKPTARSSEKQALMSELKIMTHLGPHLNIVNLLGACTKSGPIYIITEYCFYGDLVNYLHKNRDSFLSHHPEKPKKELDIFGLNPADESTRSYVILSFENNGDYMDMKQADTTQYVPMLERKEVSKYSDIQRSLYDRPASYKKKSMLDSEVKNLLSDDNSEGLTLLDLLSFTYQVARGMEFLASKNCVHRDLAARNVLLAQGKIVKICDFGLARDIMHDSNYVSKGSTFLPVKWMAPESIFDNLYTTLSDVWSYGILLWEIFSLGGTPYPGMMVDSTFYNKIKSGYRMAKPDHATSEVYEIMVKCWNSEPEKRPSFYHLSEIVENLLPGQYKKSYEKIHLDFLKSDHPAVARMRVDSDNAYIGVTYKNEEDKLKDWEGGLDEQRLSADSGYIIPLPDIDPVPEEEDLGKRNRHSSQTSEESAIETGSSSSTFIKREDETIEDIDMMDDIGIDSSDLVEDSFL
Chain of Ribosomal protein S6 kinase alpha-2 (Homo sapiens) (Q15349 whole entry): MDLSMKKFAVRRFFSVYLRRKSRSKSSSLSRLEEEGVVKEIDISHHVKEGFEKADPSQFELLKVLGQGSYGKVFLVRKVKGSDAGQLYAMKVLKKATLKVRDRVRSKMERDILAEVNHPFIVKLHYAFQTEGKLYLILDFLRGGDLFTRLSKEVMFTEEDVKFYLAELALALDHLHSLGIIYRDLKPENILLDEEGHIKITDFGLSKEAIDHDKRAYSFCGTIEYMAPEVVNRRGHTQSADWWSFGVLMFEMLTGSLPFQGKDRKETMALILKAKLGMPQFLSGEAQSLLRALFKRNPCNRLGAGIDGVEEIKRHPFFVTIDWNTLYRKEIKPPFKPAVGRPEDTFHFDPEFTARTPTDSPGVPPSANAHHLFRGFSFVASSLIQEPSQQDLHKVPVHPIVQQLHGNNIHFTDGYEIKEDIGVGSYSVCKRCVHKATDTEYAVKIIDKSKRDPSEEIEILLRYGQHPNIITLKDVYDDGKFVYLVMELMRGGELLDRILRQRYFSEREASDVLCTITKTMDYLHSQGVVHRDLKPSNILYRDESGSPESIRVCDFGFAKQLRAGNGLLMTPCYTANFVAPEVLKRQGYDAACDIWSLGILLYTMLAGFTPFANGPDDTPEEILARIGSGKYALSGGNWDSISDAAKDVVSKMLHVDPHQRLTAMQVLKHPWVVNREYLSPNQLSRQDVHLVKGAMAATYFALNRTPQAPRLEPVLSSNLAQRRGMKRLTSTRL

In the case of `CN(C)CC#Cc1ccc(OCCCc2sc(N3CCc4cccc(C(=O)Nc5nc6ccccc6s5)c4C3)nc2C(=O)O)c(F)c1` [A-1155463], the residual activity [1] is reported as 99%, the residual activity [2] is reported as 89% and the residual activity [3] is reported as 100%. It also gave a residual activity [4] of 87%, a residual activity [5] of 100% and a residual activity [6] of 100%. For the same compound, the residual activity [7] was 100%, the residual activity [8] was 77% and the residual activity [9] was 100%. The residual activity [10] was 95%, the residual activity [11] was 95% and the residual activity [12] was 87%. For the same compound, the residual activity [13] was 100%, the residual activity [14] was 100% and the residual activity [15] was 91%. The residual activity [16] was 100%, the residual activity [17] was 96% and the residual activity [18] was 100%. For the same compound, the residual activity [19] was 100%, the residual activity [20] was 98% and the residual activity [21] was 100%. It also gave a residual activity [22] of 92%, a residual activity [23] of 94% and a residual activity [24] of 100%. It also gave a residual activity [25] of 100%, a residual activity [26] of 100% and a residual activity [27] of 86%. The residual activity [28] was 70%, the residual activity [29] was 84% and the residual activity [30] was 75%. The residual activity [31] was 100%, the residual activity [32] was 100% and the residual activity [33] was 90%. The residual activity [34] was 96%, the inhibition [35] was 20.2% and the inhibition [36] was 15.4%. For the same compound, the inhibition (Histamine H3 receptor) was 53.3% and the inhibition [37] was 7.32%.
